# Structures can show the parent of a compound that is named as a salt. Numbered stars: 1 amine (or outer) side, 2 acyl side, 3 side chain; on linkers, the order of the positions; unused ones are H or OH. Bridge positions count the residues as written; N and C are the ends. Square brackets hold non-standard residues; d marks the D form. Peptide text beside a SMILES is read from it. I, II: the chains in the order shown. Actinocin(9to1) = Cc1c2oc3c(C)ccc(C(=O)[*:1])c3nc-2c(C(=O)[*:2])c(N)c1=O; NMeV = CN[C@H](C(=O)O)C(C)C; Sar = CNCC(=O)O
# Test: Dipyridamole loading by pH change
# Format: physicochemical
# Details: pH 2
# Procedure: In another example of drug loading, a solution of the drug dipyridamole was used given the intensely coloured nature of the drug allows simple detection. At pH 2 this drug was dissolved to give a fluorescent green-yellow solution. By adjusting the pH to 9-10 the drug was seen to precipitate.
row,SMILES,solubility behaviour of the drug
1,OCCN(CCO)c1nc(N2CCCCC2)c2nc(N(CCO)CCO)nc(N3CCCCC3)c2n1 [Dipyramidole],dissolved

# Same assay, conditions: pH 9-10
row,SMILES,solubility behaviour of the drug
1,OCCN(CCO)c1nc(N2CCCCC2)c2nc(N(CCO)CCO)nc(N3CCCCC3)c2n1 [Dipyramidole],precipitate

# Test: not given
# Details: octanol/water; determined experimentally, literature; cited from earlier work
row,SMILES,LogP (Exp)
1,Nc1nc2nc[nH]c2c(=S)[nH]1 [6-Thioguanine],−0.28
2,"Cc1c2oc3c(C)ccc(C(=O)N[C@@H]4C(=O)N[C@H](C(C)C)C(=O)N5CCC[C@H]5C(=O)N(C)CC(=O)N(C)[C@@H](C(C)C)C(=O)O[C@@H]4C)c3nc-2c(C(=O)N[C@@H]2C(=O)N[C@H](C(C)C)C(=O)N3CCC[C@H]3C(=O)N(C)CC(=O)N(C)[C@@H](C(C)C)C(=O)O[C@@H]2C)c(N)c1=O [Actinomycin] (I: T[dV]P[Sar][NMeV] / II: T[dV]P[Sar][NMeV]; ester I:1-I:C, II:1-II:C; linker I:N-II:N via Actinocin(9to1))",0.997
3,COCc1c(C(C)C)nc(C(C)C)c(/C=C/[C@@H](O)C[C@@H](O)CC(=O)O)c1-c1ccc(F)cc1 [Cerivastatin],2.05
4,O=C1CCc2cc(OCCCCc3nnnn3C3CCCCC3)ccc2N1 [Cilostazol],2.3
5,C[C@]12CC[C@@H]3c4ccc(O)cc4CC[C@H]3[C@@H]1CC[C@@H]2O [Estradiol],4.3
6,COc1cc([C@@H]2c3cc4c(cc3[C@@H](O[C@@H]3O[C@@H]5CO[C@@H](C)O[C@H]5[C@H](O)[C@H]3O)[C@H]3COC(=O)[C@H]23)OCO4)cc(OC)c1O [Etoposide],0.99
7,O=c1[nH]cc(F)c(=O)[nH]1 [Fluorouracil],−1
8,CC(C)n1c(/C=C/C(O)CC(O)CC(=O)O)c(-c2ccc(F)cc2)c2ccccc21 (centres unmarked) [Fluvastatin],1.67
9,CC[C@H](C)C(=O)O[C@H]1C[C@@H](C)C=C2C=C[C@H](C)[C@H](CC[C@@H]3C[C@@H](O)CC(=O)O3)[C@H]21 [Lovastatin],1.7
10,CC[C@H](C)C(=O)O[C@H]1C[C@H](O)C=C2C=C[C@H](C)[C@H](CC[C@@H](O)C[C@@H](O)CC(=O)O)[C@H]21 [Pravastatin],−0.23
11,CC(=O)O[C@H]1C(=O)[C@@]2(C)[C@H]([C@H](OC(=O)c3ccccc3)[C@]3(O)C[C@H](OC(=O)[C@H](O)[C@@H](NC(=O)c4ccccc4)c4ccccc4)C(C)=C1C3(C)C)[C@]1(OC(C)=O)CO[C@@H]1C[C@@H]2O [Taxol],3.98
12,CC[C@]1(O)C[C@@H]2CN(CCc3c([nH]c4ccccc34)[C@@](C(=O)OC)(c3cc4c(cc3OC)N(C)[C@H]3[C@@](O)(C(=O)OC)[C@H](OC(C)=O)[C@]5(CC)C=CCN6CC[C@]43[C@@H]65)C2)C1 [Vinblastine],1.68
13,CC[C@]1(O)C[C@H]2CN(CCc3c([nH]c4ccccc34)[C@@](C(=O)OC)(c3cc4c(cc3OC)N(C=O)[C@H]3[C@@](O)(C(=O)OC)[C@H](OC(C)=O)[C@]5(CC)C=CCN6CC[C@]43[C@@H]65)C2)C1 [Vincristine Sulfate],2.14

# Test: Release of solubilised Orange OT dye from micelles by lowered pH (particle size)
# Format: physicochemical
# Details: pH 4.5, after release from MPC30-DEA60 micelles
# Text: The release of solubilised Orange OT dye from micelles, as a model for drug release, using lowered pH as the stimuli was examined.
row,SMILES,share of the particle population
1,Cc1ccccc1N=Nc1c(O)ccc2ccccc12 [Orange OT],1%

# Same assay, conditions: released from MPC30-DEA60 micelles, pH reduced to pH 4.5
row,SMILES,mean particle diameter of released dye aggregates
1,Cc1ccccc1N=Nc1c(O)ccc2ccccc12 [Orange OT],113 nm
